Read-outs that look alike come from different tables or passages of the source.
Assays:
IGF1R = IGF1R (Homo sapiens, UniProt P08069); test: In vitro IGF-1R enzymatic assay (ADP-Glo kinase assay); type: biochemical; design: purchased Millipore 14-802; conditions: activated IGF-1R, 30 nM
Protocol: IC50 values of the compounds of the invention against IGF-1R and IR were measured in vitro using an ADP-Glo kinase assay Kit (Promega). […] Kinase reactions in both assays were conducted at 30° C. for 20 min with increasing concentrations of compounds of the invention.

[1] = test system: Akt phosphorylation induced by IGF-1R in HT-29 cells; test: Western blot analysis of Akt phosphorylation induced by IGF-1R; type: cell-based, Human; conditions: for phosphorylated AKT levels normalized to actin levels (pAKT/actin): then IGF-1 10 ng/mL 10 min, HT-29
Protocol: Inhibition of Akt phosphorylation induced by IGF-1R was studied by western blot analysis. Human colon carcinoma HT-29 cells were seeded at a density of 8×10^4 cells/well in a 24-well plate and grown in DME/F12 media containing 10% FBS for 24 h. The cells were then depleted of serum by incubation in DME/F12 media lacking FBS for 24 h. […] […] Lysed cells were centrifuged at 13,000 rpm for 15 min and the protein concentration soluble fraction (supernatant) of each sample was determined using a BCA protein assay (Pierce).

[2] = average, read-out: % Inh @ 30 nM Avg
[3] = replicate N1, read-out: % Inh @ 30 nM (N1)
[4] = replicate N2, read-out: % Inh @ 30 nM (N2)

Chain of IGF1R (P08069 31-1367): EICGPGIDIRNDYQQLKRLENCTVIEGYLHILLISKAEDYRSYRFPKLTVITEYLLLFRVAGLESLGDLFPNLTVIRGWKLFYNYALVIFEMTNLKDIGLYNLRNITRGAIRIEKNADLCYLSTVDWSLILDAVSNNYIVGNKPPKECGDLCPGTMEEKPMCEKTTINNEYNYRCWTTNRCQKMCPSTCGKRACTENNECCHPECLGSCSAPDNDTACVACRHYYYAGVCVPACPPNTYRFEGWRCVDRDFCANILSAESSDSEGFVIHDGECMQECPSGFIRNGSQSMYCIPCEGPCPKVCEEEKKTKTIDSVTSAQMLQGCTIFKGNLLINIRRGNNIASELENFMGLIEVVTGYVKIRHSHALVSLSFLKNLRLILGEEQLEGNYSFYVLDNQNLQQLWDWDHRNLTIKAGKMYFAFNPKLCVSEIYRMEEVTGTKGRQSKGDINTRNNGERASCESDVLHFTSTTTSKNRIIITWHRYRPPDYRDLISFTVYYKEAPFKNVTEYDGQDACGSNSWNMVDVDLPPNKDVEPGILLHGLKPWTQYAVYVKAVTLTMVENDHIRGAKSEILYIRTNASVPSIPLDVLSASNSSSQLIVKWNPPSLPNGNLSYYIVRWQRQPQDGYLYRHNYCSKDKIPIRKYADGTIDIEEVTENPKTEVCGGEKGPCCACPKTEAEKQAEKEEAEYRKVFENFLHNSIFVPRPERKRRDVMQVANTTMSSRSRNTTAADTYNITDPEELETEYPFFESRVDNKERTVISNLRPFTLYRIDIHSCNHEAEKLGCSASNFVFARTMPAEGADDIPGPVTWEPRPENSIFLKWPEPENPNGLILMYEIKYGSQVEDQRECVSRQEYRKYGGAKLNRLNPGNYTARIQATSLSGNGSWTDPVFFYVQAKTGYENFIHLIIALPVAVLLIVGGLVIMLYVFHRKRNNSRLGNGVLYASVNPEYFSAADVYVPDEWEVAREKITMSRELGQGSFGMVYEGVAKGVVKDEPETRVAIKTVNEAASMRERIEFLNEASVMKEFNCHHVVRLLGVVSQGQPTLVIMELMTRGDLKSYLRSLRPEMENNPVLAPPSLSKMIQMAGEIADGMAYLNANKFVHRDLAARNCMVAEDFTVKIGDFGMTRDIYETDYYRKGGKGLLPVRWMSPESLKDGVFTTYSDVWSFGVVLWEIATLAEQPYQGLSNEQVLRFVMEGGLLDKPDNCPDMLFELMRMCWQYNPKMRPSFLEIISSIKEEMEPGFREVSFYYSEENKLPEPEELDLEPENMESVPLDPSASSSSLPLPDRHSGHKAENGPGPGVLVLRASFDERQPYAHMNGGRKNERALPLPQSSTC

| Structure (SMILES) | phosphorylated AKT levels normalized to actin levels (pAKT/actin) ([1]; 0.1 nM compound 2 h) | phosphorylated AKT levels normalized to actin levels (pAKT/actin) ([1]; 1 nM compound 2 h) | phosphorylated AKT levels normalized to actin levels (pAKT/actin) ([1]; 10 nM compound 2 h) | phosphorylated AKT levels normalized to actin levels (pAKT/actin) ([1]; 100 nM compound 2 h) | other results |
| --- | --- | --- | --- | --- | --- |
| CC(C)c1cc(Nc2nc(N3CCCC3C(=O)N(C)C)nc3c2CCC3)n[nH]1 (single isomer, unassigned) [Compound 20a, 1-(4-(5-isopropyl-1H-pyrazol-3-ylamino)-6,7-dihydro-5H-cyclopenta[d]pyrimidin-2-yl)-N,N-dimethylpyrrolidine-2-carboxamide] | – | – | – | – | inhibition at 0.03 µM (IGF1R; [2]): 11% |
| O=C(Nc1ccc(F)nc1)C1CCCCN1c1nc2c(c(Nc3cc(C4CC4)[nH]n3)n1)CCC2 (racemic) [Compound 9, 1-(4-(5-cyclopropyl-1H-pyrazol-3-ylamino)-6,7-dihydro-5H-cyclopenta[d]pyrimidin-2-yl)-N-(6-fluoropyridin-3-yl)piperidine-2-carboxamide] | 0.67 | 0.71 | 0.07 | 0.00 | – |
| O=C(Nc1ccc(F)nc1)C1CCCCN1c1nc2c(c(Nc3cc(C4CC4)[nH]n3)n1)CCC2 (single isomer, unassigned) [Compound 9a, 1-(4-(5-cyclopropyl-1H-pyrazol-3-ylamino)-6,7-dihydro-5H-cyclopenta[d]pyrimidin-2-yl)-N-(6-fluoropyridin-3-yl)piperidine-2-carboxamide] | – | – | 0.53 | 0.02 | – |
| O=C(Nc1ccc(F)nc1)C1CCCN1c1nc2c(c(Nc3cc(C4CC4)[nH]n3)n1)CCC2 (single isomer, unassigned) [Compound 2a, 1-(4-(5-cyclopropyl-1H-pyrazol-3-ylamino)-6,7-dihydro-5H-cyclopenta[d]pyrimidin-2-yl)-N-(6-fluoropyridin-3-yl)pyrrolidine-2-carboxamide] | 1.70 | – | – | – | – |
| O=C(Nc1ccc(F)nc1)C1C(O)CCN1c1nc2c(c(Nc3cc(C4CC4)[nH]n3)n1)CCC2 (single isomer, unassigned) [Compound 11a] | – | – | – | – | inhibition at 0.03 µM (IGF1R; [2]): 13%; inhibition at 0.03 µM (IGF1R; [3]): 17%; inhibition at 0.03 µM (IGF1R; [4]): 10% |
| O=C(Nc1ccc(F)nc1)C1CCCN1c1nc2c(c(Nc3cc(C4CCCC4)[nH]n3)n1)CCC2 (single isomer, unassigned) [Compound 4b, 1-(4-(5-cyclopentyl-1H-pyrazol-3-ylamino)-6,7-dihydro-5H-cyclopenta[d]pyrimidin-2-yl)-N-(6-fluoropyridin-3-yl)pyrrolidine-2-carboxamide] | – | – | – | 0.20 | – |
| O=C(Nc1ccc(F)nc1)C1C(O)CCN1c1nc2c(c(Nc3cc(C4CC4)[nH]n3)n1)CCC2 (single isomer, unassigned) [Compound 11b, 1-(4-(5-cyclopropyl-1H-pyrazol-3-ylamino)-6,7-dihydro-5H-cyclopenta[d]pyrimidin-2-yl)-N-(6-fluoropyridin-3-yl)-3-hydroxypyrrolidine-2-carboxamide] | – | – | – | 0.33 | – |
| O=C(Nc1ccc(F)nc1)C1CCCN1c1nc2c(c(Nc3cc(C4CC4)[nH]n3)n1)CCCC2 (single isomer, unassigned) [Compound 14a, 1-(4-(5-cyclopropyl-1H-pyrazol-3-ylamino)-5,6,7,8-tetrahydroquinazolin-2-yl)-N-(6-fluoropyridin-3-yl)pyrrolidine-2-carboxamide] | 0.73 | 0.51 | 0.43 | 0.35 | – |
| O=C(Nc1cccnc1)C1CCCN1c1nc2c(c(Nc3cc(C4CC4)[nH]n3)n1)CCC2 (single isomer, unassigned) [Compound 3b, 1-(4-(5-cyclopropyl-1H-pyrazol-3-ylamino)-6,7-dihydro-5H-cyclopenta[d]pyrimidin-2-yl)-N-(pyridin-3-yl)pyrrolidine-2-carboxamide] | – | 1.70 | 0.57 | 0.02 | – |
| O=C(Nc1ccc(F)nc1)C1CCCN1c1nc2c(c(Nc3cc(C4CCCC4)[nH]n3)n1)CCC2 (racemic) [Compound 4, 1-(4-(5-cyclopentyl-1H-pyrazol-3-ylamino)-6,7-dihydro-5H-cyclopenta[d]pyrimidin-2-yl)-N-(6-fluoropyridin-3-yl)pyrrolidine-2-carboxamide] | – | – | – | 0.06 | – |
| O=C(Nc1cnccn1)C1CCCN1c1nc2c(c(Nc3cc(C4CC4)[nH]n3)n1)CCC2 (single isomer, unassigned) [Compound 6a] | – | – | 1.40 | – | – |
| CC(C)c1cc(Nc2nc(N3CCCCC3C(=O)Nc3ccc(F)nc3)nc3c2CCC3)n[nH]1 (single isomer, unassigned) [Compound 16b, N-(6-fluoropyridin-3-yl)-1-(4-(5-isopropyl-1H-pyrazol-3-ylamino)-6,7-dihydro-5H-cyclopenta[d]pyrimidin-2-yl)piperidine-2-carboxamide] | 0.53 | 0.51 | 0.15 | 0.01 | – |
| O=C(Nc1ccc(F)nc1)C1CCCCN1c1nc2c(c(Nc3cc(C4CCCC4)[nH]n3)n1)CCC2 (single isomer, unassigned) [Compound 17b, 1-(4-(5-cyclopentyl-1H-pyrazol-3-ylamino)-6,7-dihydro-5H-cyclopenta[d]pyrimidin-2-yl)-N-(6-fluoropyridin-3-yl)piperidine-2-carboxamide] | 0.83 | 0.99 | 0.95 | – | – |
| O=C(Nc1cncnc1)C1CCCN1c1nc2c(c(Nc3cc(C4CC4)[nH]n3)n1)CCC2 (racemic) [Compound 7, 1-(4-(5-cyclopropyl-1H-pyrazol-3-ylamino)-6,7-dihydro-5H-cyclopenta[d]pyrimidin-2-yl)-N-(pyrimidin-5-yl)pyrrolidine-2-carboxamide] | – | – | – | 1.20 | – |
| O=C(Nc1ccc(F)nc1)C1CCCN1c1nc2c(c(Nc3cc(C4CC4)[nH]n3)n1)CCC2 (racemic) [Compound 2, 1-(4-(5-cyclopropyl-1H-pyrazol-3-ylamino)-6,7-dihydro-5H-cyclopenta[d]pyrimidin-2-yl)-N-(6-fluoropyridin-3-yl)pyrrolidine-2-carboxamide] | – | 0.91 | 0.07 | 0.00 | – |
| CC(C)c1cc(Nc2nc(N3CCCC3C(=O)Nc3ccc(F)nc3)nc3c2CCC3)on1 (single isomer, unassigned) [Compound 12a, N-(6-fluoropyridin-3-yl)-1-(4-(3-isopropylisoxazol-5-ylamino)-6,7-dihydro-5H-cyclopenta[d]pyrimidin-2-yl)pyrrolidine-2-carboxamide] | – | – | – | – | inhibition at 0.03 µM (IGF1R; [2]): 20%; inhibition at 0.03 µM (IGF1R; [3]): 19%; inhibition at 0.03 µM (IGF1R; [4]): 20% |
| O=C(Nc1cnccn1)C1CCCN1c1nc2c(c(Nc3cc(C4CC4)[nH]n3)n1)CCC2 (racemic) [Compound 6, 1-(4-(5-cyclopropyl-1H-pyrazol-3-ylamino)-6,7-dihydo-5H-cyclopenta[d]pyrimidin-2-yl)-N-(pyrazin-2-yl)pyrrolidine-2-carboxamide] | – | 0.22 | 0.01 | 0.01 | Normalized phosphorylated AKT (relative to actin) levels relative to 0.1 nM compound treatment ([1]; 100 nM): 0.0 |
| O=C(Nc1ccc(F)nc1)C1CCCN1c1nc2c(c(Nc3cc(C4CCCC4)[nH]n3)n1)CCCC2 (single isomer, unassigned) [Compound 15b, 1-(4-(5-cyclopentyl-1H-pyrazol-3-ylamino)-5,6,7,8-tetrahydroquinazolin-2-yl)-N-(6-fluoropyridin-3-yl)pyrrolidine-2-carboxamide] | 0.52 | 0.58 | 0.43 | 0.13 | – |
| CC(C)c1cc(Nc2nc(N3CCCC3C(=O)Nc3ccc(F)nc3)nc3c2CCCC3)n[nH]1 (single isomer, unassigned) [Compound 13a, N-(6-fluoropyridin-3-yl)-1-(4-(5-isopropyl-1H-pyrazol-3-ylamino)-5,6,7,8-tetrahydroquinazolin-2-yl)pyrrolidine-2-carboxamide] | 0.51 | 0.54 | 0.45 | 0.80 | – |

From patent publication US9422267B2, “Fused pyrimidine compounds and use thereof” (Medivation Technologies, Inc., priority 2012, dated 2016)
